{
  "source": "PubChem BioAssay (NCI)",
  "note": "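96-well plates; 48 h exposure; 5 concentrations. Endpoints by linear interpolation between flanking doses. Not reached: highest tested concentration assigned. TGI marks complete inhibition of growth.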",
  "data": [
    {"test_system": "A549 NSCLC", "test": "growth of human tumour cells (NCI), 48 h", "units": {"TGI": "µM"}, "values": [
      {"smiles": "O=C1c2ccccc2-c2nnc(-c3ccc([N+](=O)[O-])cc3)cc21", "TGI": "> 10"},
      {"smiles": "C1C2CC3CC1CC(c1nn4c(C56CC7CC(CC(C7)C5)C6)nnc4s1)(C2)C3", "TGI": "> 100"},
      {"smiles": "Cn1c(-c2cccs2)cc(-c2cccs2)c1-c1cccs1", "TGI": "> 100"},
      {"smiles": "CCSc1nnc(Sc2c3ccccc3nc3ccccc23)s1", "TGI": "> 100"},
      {"smiles": "N=c1c2ccccc2nc2oc3cc([N+](=O)[O-])ccc3n12", "TGI": "> 100"},
      {"smiles": "CCOC(=O)CC[C@H](N)C(=O)N[C@@H](Cc1ccc(N(CCCl)CCCl)cc1)C(=O)OCC", "TGI": "> 48.9"}
    ]},
    {"test_system": "HOP-62 NSCLC", "test": "growth of human tumour cells (NCI), 48 h", "units": {"TGI": "µM"}, "values": [
      {"smiles": "CCN(CCCl)c1cc(CN(C)C)cc(NC(=O)c2ccc(C(=O)Nc3cc(CN(C)C)cc(N(CC)CCCl)c3)cc2)c1", "TGI": 0.966},
      {"smiles": "C=CCN1C(=O)/C(=C/c2ccc(Cl)cc2)N=C1SC/C=C/C", "TGI": "> 100"},
      {"smiles": "CC12Nc3c(Cl)cc(Cl)cc3N1C(=O)c1ccccc12", "note": "(configuration not stated)", "TGI": "> 100"},
      {"smiles": "O=C1C2=Cc3ccccc3CCN2c2ccccc21", "TGI": "> 100"},
      {"smiles": "CC(=O)OCC1OC(NC(=S)Nn2c(=O)[nH]c3ccccc3c2=O)C(OC(C)=O)C(OC(C)=O)C1OC(C)=O", "note": "(configuration not stated)", "TGI": "> 100"},
      {"smiles": "CN(CCC(=O)N1CC(CCl)c2ccc([N+](=O)[O-])cc21)CCC(=O)N1CC(CCl)c2ccc([N+](=O)[O-])cc21", "note": "(configuration not stated)", "TGI": "> 100"},
      {"smiles": "C[C@]12CC[C@H]3[C@@H](CCC4=CC(=O)CC[C@@H]43)[C@@H]1CC[C@]2(O)C(N)=O", "TGI": "> 100"},
      {"smiles": "C/C(Cl)=N/OC(=O)Nc1ccc(F)c([N+](=O)[O-])c1", "TGI": 33.9},
      {"smiles": "O=c1[nH]c(=O)n(C/C=C/CO)nc1Br", "TGI": "> 100"},
      {"smiles": "O=C1CC(Br)c2c(Br)sc(Br)c21", "note": "(configuration not stated)", "TGI": 39},
      {"smiles": "CC[C@]12C=CCN3CC[C@@]4(c5cc(Br)c(OC)c([N+](=O)[O-])c5N(C)[C@H]4[C@@](O)(C(=O)OC)[C@@H]1OC(C)=O)[C@@H]32", "TGI": "> 100"},
      {"smiles": "COC(=O)C1C2OC(C)(C)OC2CN1S(=O)(=O)c1ccc(C)cc1", "note": "(configuration not stated)", "TGI": "> 100"},
      {"smiles": "COc1ccc(CNc2ccn(C3OC(CO)C(O)C3O)c(=O)n2)cc1", "note": "(configuration not stated)", "TGI": "> 100"},
      {"smiles": "O=C1CSC(c2ccccc2)N1c1nc2cc3sc(N4C(=O)CSC4c4ccccc4)nc3cc2s1", "note": "(configuration not stated)", "TGI": "> 100"},
      {"smiles": "Cc1nc(N)c(N2CCN(S(N)(=O)=O)CC2)c(=O)[nH]1", "TGI": "> 100"},
      {"smiles": "CC(C)OC(=O)c1ccc(NCC2=CC(=O)C=CC2=O)cc1", "TGI": "> 100"},
      {"smiles": "CC(C)C[C@H]1[C@@H](OCc2ccccc2)COS(=O)(=O)N1[C@H](C)c1ccccc1", "TGI": "> 100"},
      {"smiles": "O=c1[nH]c2cccc([N+](=O)[O-])c2c(=O)n1-c1ccc(Cl)cc1", "TGI": 61},
      {"smiles": "O=C1c2ccccc2-c2nnc(-c3ccc([N+](=O)[O-])cc3)cc21", "TGI": "> 10"},
      {"smiles": "C1C2CC3CC1CC(c1nn4c(C56CC7CC(CC(C7)C5)C6)nnc4s1)(C2)C3", "TGI": "> 100"},
      {"smiles": "Cn1c(-c2cccs2)cc(-c2cccs2)c1-c1cccs1", "TGI": "> 100"},
      {"smiles": "CCSc1nnc(Sc2c3ccccc3nc3ccccc23)s1", "TGI": "> 100"},
      {"smiles": "N=c1c2ccccc2nc2oc3cc([N+](=O)[O-])ccc3n12", "TGI": 45.4},
      {"smiles": "CCOC(=O)CC[C@H](N)C(=O)N[C@@H](Cc1ccc(N(CCCl)CCCl)cc1)C(=O)OCC", "TGI": 9.94}
    ]},
    {"test_system": "SK-MEL-2 melanoma", "test": "growth of human tumour cells (NCI), 48 h", "units": {"TGI": "µM"}, "values": [
      {"smiles": "CCN(CCCl)c1cc(CN(C)C)cc(NC(=O)c2ccc(C(=O)Nc3cc(CN(C)C)cc(N(CC)CCCl)c3)cc2)c1", "TGI": 3.23},
      {"smiles": "C=CCN1C(=O)/C(=C/c2ccc(Cl)cc2)N=C1SC/C=C/C", "TGI": 68.2},
      {"smiles": "CC12Nc3c(Cl)cc(Cl)cc3N1C(=O)c1ccccc12", "note": "(configuration not stated)", "TGI": "> 100"},
      {"smiles": "O=C1C2=Cc3ccccc3CCN2c2ccccc21", "TGI": 67.9},
      {"smiles": "CC(=O)OCC1OC(NC(=S)Nn2c(=O)[nH]c3ccccc3c2=O)C(OC(C)=O)C(OC(C)=O)C1OC(C)=O", "note": "(configuration not stated)", "TGI": "> 100"},
      {"smiles": "CN(CCC(=O)N1CC(CCl)c2ccc([N+](=O)[O-])cc21)CCC(=O)N1CC(CCl)c2ccc([N+](=O)[O-])cc21", "note": "(configuration not stated)", "TGI": 26},
      {"smiles": "C[C@]12CC[C@H]3[C@@H](CCC4=CC(=O)CC[C@@H]43)[C@@H]1CC[C@]2(O)C(N)=O", "TGI": "> 100"},
      {"smiles": "C/C(Cl)=N/OC(=O)Nc1ccc(F)c([N+](=O)[O-])c1", "TGI": 32.2},
      {"smiles": "O=c1[nH]c(=O)n(C/C=C/CO)nc1Br", "TGI": "> 100"},
      {"smiles": "O=C1CC(Br)c2c(Br)sc(Br)c21", "note": "(configuration not stated)", "TGI": 35.8},
      {"smiles": "CC[C@]12C=CCN3CC[C@@]4(c5cc(Br)c(OC)c([N+](=O)[O-])c5N(C)[C@H]4[C@@](O)(C(=O)OC)[C@@H]1OC(C)=O)[C@@H]32", "TGI": "> 100"},
      {"smiles": "COC(=O)C1C2OC(C)(C)OC2CN1S(=O)(=O)c1ccc(C)cc1", "note": "(configuration not stated)", "TGI": "> 100"},
      {"smiles": "COc1ccc(CNc2ccn(C3OC(CO)C(O)C3O)c(=O)n2)cc1", "note": "(configuration not stated)", "TGI": "> 100"},
      {"smiles": "O=C1CSC(c2ccccc2)N1c1nc2cc3sc(N4C(=O)CSC4c4ccccc4)nc3cc2s1", "note": "(configuration not stated)", "TGI": "> 100"},
      {"smiles": "Cc1nc(N)c(N2CCN(S(N)(=O)=O)CC2)c(=O)[nH]1", "TGI": "> 100"},
      {"smiles": "CC(C)OC(=O)c1ccc(NCC2=CC(=O)C=CC2=O)cc1", "TGI": 31.5},
      {"smiles": "CC(C)C[C@H]1[C@@H](OCc2ccccc2)COS(=O)(=O)N1[C@H](C)c1ccccc1", "TGI": "> 100"},
      {"smiles": "O=c1[nH]c2cccc([N+](=O)[O-])c2c(=O)n1-c1ccc(Cl)cc1", "TGI": 25.6},
      {"smiles": "O=C1c2ccccc2-c2nnc(-c3ccc([N+](=O)[O-])cc3)cc21", "TGI": "> 10"},
      {"smiles": "C1C2CC3CC1CC(c1nn4c(C56CC7CC(CC(C7)C5)C6)nnc4s1)(C2)C3", "TGI": "> 100"},
      {"smiles": "Cn1c(-c2cccs2)cc(-c2cccs2)c1-c1cccs1", "TGI": "> 100"},
      {"smiles": "CCSc1nnc(Sc2c3ccccc3nc3ccccc23)s1", "TGI": 56.2},
      {"smiles": "N=c1c2ccccc2nc2oc3cc([N+](=O)[O-])ccc3n12", "TGI": "> 100"},
      {"smiles": "CCOC(=O)CC[C@H](N)C(=O)N[C@@H](Cc1ccc(N(CCCl)CCCl)cc1)C(=O)OCC", "TGI": 5.28}
    ]},
    {"test_system": "HT29 colon", "test": "growth of human tumour cells (NCI), 48 h", "units": {"TGI": "µM"}, "values": [
      {"smiles": "CCN(CCCl)c1cc(CN(C)C)cc(NC(=O)c2ccc(C(=O)Nc3cc(CN(C)C)cc(N(CC)CCCl)c3)cc2)c1", "TGI": 3.55},
      {"smiles": "C=CCN1C(=O)/C(=C/c2ccc(Cl)cc2)N=C1SC/C=C/C", "TGI": "> 100"},
      {"smiles": "CC12Nc3c(Cl)cc(Cl)cc3N1C(=O)c1ccccc12", "note": "(configuration not stated)", "TGI": "> 100"}
    ]}
  ]
}
